System: Hordeum vulgare (HORVS)
Experiment: Drought stress test on crop plants, spray application in greenhouse, visual damage rating
Assay type: in vivo
Details: 25 g/ha, mean of three results
Method: Seeds of monocotyledonous and dicotyledonous crop plants were placed in sandy loam in wood-fiber pots, covered with soil and cultivated in a greenhouse under good growth conditions. The test plants were treated at the early leaf stage (BBCH10-BBCH13). To ensure uniform water supply before commencement of stress, the potted plants were supplied with the maximum amount of water immediately beforehand by dam irrigation and, after application, transferred in plastic inserts in order to prevent subsequent, excessively rapid drying. The inventive compounds, formulated in the form of wettable powders (WP), wettable granules (WG), suspension concentrates (SC) or emulsion concentrates (EC), were sprayed onto the green parts of the plants as an aqueous suspension at an equivalent water application rate of 600 l/ha with addition of 0.2% wetting agent (agrotin). Substance application was followed immediately by stress treatment of the plants (cold or drought stress). For cold stress treatment, the plants were kept under the following controlled conditions: Drought stress was induced by gradual drying out under the following conditions: “day”: 14 hours with illumination at 26° C. “night”: 10 hours without illumination at 18° C. The duration of the respective stress phases was guided mainly by the state of the untreated, stressed control plants and thus varies from crop to crop. It was ended (by re-irrigating or transfer to a greenhouse with good growth conditions) as soon as irreversible damage is observed on the untreated, stressed control plants. In the case of dicotyledonous crops, for example oilseed rape and soya, the duration of the drought stress phase was between 3 and 5 days, in the case of monocotyledonous crops, for example wheat, barley or corn, between 6 and 10 days. The duration of the cold stress phase varied between 12 and 14 days. The end of the stress phase was followed by an approx. 5-7-day recovery phase, during which the plants were once again kept under good growth conditions in a greenhouse. In order to rule out any influence of the effects observed by any fungicidal action of the test compounds, it was additionally ensured that the tests proceed without fungal infection and without infection pressure. After the recovery phase had ended, the intensities of damage were rated visually compared to untreated, unstressed controls of the same age (in the case of drought stress) or the same growth stage (in the case of cold stress). The intensity of damage was first assessed as a percentage (100%=plants have died, 0%=like control plants). These values were then used to calculate the efficacy of the test compounds (=percentage reduction in the intensity of damage as a result of substance application) by the following formula: [formula] EF: efficacy (%) DVus: damage value of the untreated, stressed control DVts: damage value of the plants treated with test compound The tables below list mean values in each case from three results of the same test. Effects of selected compounds of the formula (I) under drought stress: HORVS=Hordeum vulgare

SMILES	EF (HORVS), efficacy = percentage reduction in the intensity of damage [%]
NC(=O)c1cccc2[nH]c(C(F)(F)C(F)(F)C(F)(F)F)nc12 [1-17]	>5
NC(=O)c1cccc2[nH]c(C(F)(F)C(F)(F)F)nc12 [1-2, 2-(pentafluoroethyl)-1H-benzimidazole-4-carboxamide]	>5
